Laboratory results taken from ChEMBL document CHEMBL1152154, “Bacterial translation inhibitors, 1-acylindazol-3-ols as anthranilic acid mimics” (2008).
Values after ≈ are worked out from the molar mass of the structure shown.

Key:
Type in all cases: functional
[1] = tested on: Staphylococcus aureus; assay: Antibacterial activity against Staphylococcus aureus UC9218
[2] = tested on: Staphylococcus aureus; assay: Antibacterial activity against Staphylococcus aureus UC9218 in presence of 10% human serum
[3] = tested on: Staphylococcus aureus; assay: Antibacterial activity against Staphylococcus aureus RN4220 at 100 uM by transcription-translation assay

Work on `Cn1c(C(=O)n2[nH]c(=O)c3cc(Br)ccc32)cc2cccc(S(=O)(=O)c3ccccc3)c21` yielded an MIC [1] of 2 µg/mL (≈ 3.92 µM) and an MIC [2] of 128 µg/mL.

In the case of `Cn1c(C(=O)n2[nH]c(=O)c3cc(C#N)ccc32)cc2cccc(S(=O)(=O)c3ccccc3)c21`, the MIC [1] is reported as 4 µg/mL (≈ 8.76 µM) and the MIC [2] is reported as 64 µg/mL.

`Cn1c(C(=O)n2[nH]c(=O)c3cc(C#N)ccc32)cc2ccccc21` was tested, and the inhibition at 100 µM [3] was 49%, the MIC [1] was 64 µg/mL (≈ 202 µM) and the MIC [2] was > 128 µg/mL.

In the case of `N#Cc1ccc2c(c1)c(=O)[nH]n2C(=O)c1cc2cccc(S(=O)(=O)c3ccccc3)c2[nH]1`, the MIC [1] is reported as 16 µg/mL (≈ 36.2 µM) and the MIC [2] is reported as > 128 µg/mL.

In the case of `N#Cc1ccc2c(c1)c(=O)[nH]n2C(=O)c1cncc(SCc2ccccc2)n1`, the inhibition at 100 µM [3] is reported as 7%, the MIC [1] is reported as > 128 µg/mL and the MIC [2] is reported as > 128 µg/mL.

For `O=C(c1cc(-c2ccccc2)on1)n1[nH]c(=O)c2cc(Br)ccc21`, the inhibition at 100 µM [3] was 42%, the MIC [1] was 16 µg/mL (≈ 41.6 µM) and the MIC [2] was > 128 µg/mL.

For `N#Cc1ccc2c(c1)c(=O)[nH]n2C(=O)c1cc2ccccc2[nH]1`, the inhibition at 100 µM [3] was 99%, the MIC [1] was 64 µg/mL (≈ 212 µM) and the MIC [2] was > 128 µg/mL.

For `N#Cc1ccc2c(c1)c(=O)[nH]n2C(=O)c1cnc(SCc2ccccc2)cn1`, the inhibition at 100 µM [3] was 22%, the MIC [1] was > 128 µg/mL and the MIC [2] was > 128 µg/mL.

`O=C(c1cccc(S(=O)(=O)N2CCc3cc(Cl)ccc32)c1)n1[nH]c(=O)c2cc(Br)ccc21` was tested, and the inhibition at 100 µM [3] was 20%, the MIC [1] was 4 µg/mL (≈ 7.51 µM) and the MIC [2] was 128 µg/mL.

For `CN(c1ccc(Cl)cc1)S(=O)(=O)c1cc(Br)cc(C(=O)n2[nH]c(=O)c3cc(Br)ccc32)c1`, the inhibition at 100 µM [3] was 29%, the MIC [1] was > 128 µg/mL and the MIC [2] was > 128 µg/mL.

With `O=C(c1cccc(S(=O)(=O)N2CCOCC2)c1)n1[nH]c(=O)c2cc(Br)ccc21` the inhibition at 100 µM [3] was 3%, the MIC [1] was > 128 µg/mL and the MIC [2] was > 128 µg/mL.

In the case of `O=C(c1cccc(S(=O)(=O)N2CCOCC2)c1)n1[nH]c(=O)c2cc(Cl)ccc21`, the inhibition at 100 µM [3] is reported as 5%, the MIC [1] is reported as > 128 µg/mL and the MIC [2] is reported as > 128 µg/mL.

`N#Cc1ccc2c(c1)c(=O)[nH]n2C(=O)c1cccc(S(=O)(=O)N2CCOCC2)c1` showed an inhibition at 100 µM [3] of 10%, an MIC [1] of 64 µg/mL (≈ 155 µM) and an MIC [2] of 64 µg/mL.

For `CC(C)Sc1ccc(C(=O)n2[nH]c(=O)c3cc(Br)ccc32)cn1`, the inhibition at 100 µM [3] was 49%, the MIC [1] was > 128 µg/mL and the MIC [2] was > 128 µg/mL.

`O=C(c1ccc(S(=O)(=O)N2CCc3cc(Cl)ccc32)cc1)n1[nH]c(=O)c2cc(Cl)ccc21` was tested, and the inhibition at 100 µM [3] was 61%, the MIC [1] was 16 µg/mL (≈ 32.8 µM) and the MIC [2] was > 128 µg/mL.

With `O=C(c1ccc(S(=O)(=O)N2CCc3cc(Cl)ccc32)cc1)n1[nH]c(=O)c2ccc(Cl)cc21` the inhibition at 100 µM [3] was 86%, the MIC [1] was 8 µg/mL (≈ 16.4 µM) and the MIC [2] was > 128 µg/mL.

With `O=C(c1cccc(S(=O)(=O)N2CCc3cc(Cl)ccc32)c1)n1[nH]c(=O)c2cc(C(F)(F)F)ccc21` the inhibition at 100 µM [3] was 62%, the MIC [1] was 8 µg/mL (≈ 15.3 µM) and the MIC [2] was > 128 µg/mL.

In the case of `O=C(c1cccc(S(=O)(=O)N2CCc3cc(Cl)ccc32)c1)n1[nH]c(=O)c2ccc(Br)cc21`, the inhibition at 100 µM [3] is reported as 67%, the MIC [1] is reported as 8 µg/mL (≈ 15 µM) and the MIC [2] is reported as > 128 µg/mL.

With `O=C(c1cccc(S(=O)(=O)N2CCc3ccccc32)c1)n1[nH]c(=O)c2cc(Br)ccc21` the inhibition at 100 µM [3] was 52%, the MIC [1] was 8 µg/mL (≈ 16.1 µM) and the MIC [2] was 128 µg/mL.

With `O=C(c1cncc(SCc2ccccc2)n1)n1[nH]c(=O)c2cc(Br)ccc21` the inhibition at 100 µM [3] was 28%, the MIC [1] was 32 µg/mL (≈ 72.5 µM) and the MIC [2] was > 128 µg/mL.

In the case of `O=C(c1cnc(SCc2ccccc2)cn1)n1[nH]c(=O)c2cc(Br)ccc21`, the inhibition at 100 µM [3] is reported as 5%, the MIC [1] is reported as > 128 µg/mL and the MIC [2] is reported as > 128 µg/mL.

Compound `O=C(c1cc2cccc(S(=O)(=O)c3ccccc3)c2[nH]1)n1[nH]c(=O)c2cc(Br)ccc21` has an MIC [1] of 16 µg/mL (≈ 32.2 µM) and an MIC [2] of 128 µg/mL.

For `N#Cc1ccc2c(c1)c(=O)[nH]n2C(=O)c1ccc(S(=O)(=O)N2CCc3cc(Cl)ccc32)cc1`, the inhibition at 100 µM [3] was 5%, the MIC [1] was 64 µg/mL (≈ 134 µM) and the MIC [2] was > 128 µg/mL.

For `N#Cc1ccc2c(c1)c(=O)[nH]n2C(=O)c1cccc(S(=O)(=O)N2CCc3ccccc32)c1`, the inhibition at 100 µM [3] was 13%, the MIC [1] was 0.5 µg/mL (≈ 1.12 µM) and the MIC [2] was 8 µg/mL.

`O=C(c1ccc(S(=O)(=O)N2CCc3cc(Cl)ccc32)cc1)n1[nH]c(=O)c2cc(Br)ccc21` was tested, and the inhibition at 100 µM [3] was 56%, the MIC [1] was 8 µg/mL (≈ 15 µM) and the MIC [2] was > 128 µg/mL.

`O=C(c1cccc(S(=O)(=O)N2CCc3cc(Cl)ccc32)c1)n1[nH]c(=O)c2ccc(Cl)cc21` was tested, and the inhibition at 100 µM [3] was 78%, the MIC [1] was 8 µg/mL (≈ 16.4 µM) and the MIC [2] was > 128 µg/mL.

`O=C(c1cccc(S(=O)(=O)N2CCc3cc(Cl)ccc32)c1)n1[nH]c(=O)c2cc(Cl)ccc21` showed an inhibition at 100 µM [3] of 80%, an MIC [1] of 4 µg/mL (≈ 8.19 µM) and an MIC [2] of 128 µg/mL.

`Cc1ccc2c(c1)c(=O)[nH]n2C(=O)c1cccc(S(=O)(=O)N2CCc3cc(Cl)ccc32)c1` was tested, and the inhibition at 100 µM [3] was 49%, the MIC [1] was 16 µg/mL (≈ 34.2 µM) and the MIC [2] was > 128 µg/mL.

With `O=C(c1cccc(S(=O)(=O)N2CCc3cc(Cl)ccc32)c1)n1[nH]c(=O)c2cc(OC(F)(F)F)ccc21` the inhibition at 100 µM [3] was 78%, the MIC [1] was 4 µg/mL (≈ 7.44 µM) and the MIC [2] was > 128 µg/mL.

In the case of `CN(c1ccc(Cl)cc1)S(=O)(=O)c1cccc(C(=O)n2[nH]c(=O)c3cc(Br)ccc32)c1`, the inhibition at 100 µM [3] is reported as 55%, the MIC [1] is reported as > 128 µg/mL and the MIC [2] is reported as > 128 µg/mL.
